The values below are quoted from earlier work in patent US6376534B1, “Compounds useful in pain management” (Astrazeneca Canada Inc., priority 1998, dated 2002).

The structures appear in SMILES notation.

For data set [1], the target named is δ receptor (Homo sapiens, UniProt P41143). Particulars: background statement.
The conditions of data set [2]: background statement.

Sequence of δ receptor (P41143 whole entry): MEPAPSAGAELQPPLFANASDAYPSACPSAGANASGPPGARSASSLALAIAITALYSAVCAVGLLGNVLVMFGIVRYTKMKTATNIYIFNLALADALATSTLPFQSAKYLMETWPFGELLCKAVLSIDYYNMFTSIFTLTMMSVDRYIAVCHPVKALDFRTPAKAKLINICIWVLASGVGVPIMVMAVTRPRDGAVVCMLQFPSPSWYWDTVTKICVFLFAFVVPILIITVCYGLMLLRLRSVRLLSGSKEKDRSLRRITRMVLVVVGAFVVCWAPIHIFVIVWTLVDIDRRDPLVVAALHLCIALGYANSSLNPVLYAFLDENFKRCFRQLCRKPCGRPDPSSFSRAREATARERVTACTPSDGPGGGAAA

Consider `Oc1ccc2c3c1O[C@H]1c4[nH]c5ccccc5c4C[C@@]4(O)[C@@H](C2)N(CC2CC2)CC[C@]314` [naltrindole], for which the “selectivity for the δ receptor vs. μ receptor binding” value in data set [1] is under 10 fold. For the same compound, the analgesic activity entry in data set [2] is listed as “no analgesic activity”.
